This assay relates to bladder cancer. Nature of the assay: 3D clonogenic assay, Example 1, bladder cancer. It counts as cell-based. The note with it: n=9 models. As for the experimental part: In the present study, plinabulin was characterized for its ability to inhibit anchorage independent growth and ex vivo colony formation of tumor cells in semi-solid medium. The compound was investigated in 87 out of 93 originally planned tumor xenografts representing all major cancer types using a 3D clonogenic assay in a 96-well format with colony count based on image analysis as read-out. By using this assay, the investigational compound was assessed for the ability to inhibit anchorage independent growth and ex vivo colony formation of tumor cells in semi-solid medium.
A master stock solution of plinabulin was prepared by dissolving the compound in DMSO at a concentration of 9.9 mM. Working stock solutions were prepared by diluting the master stock solution with DMSO to a concentration of 0.99 mM (330-fold the highest test concentration). Small aliquots of the master and working stock were stored at −20° C. […]
Plinabulin was investigated in 87 PDX models representing a number of cancer types. […] The percentage of viable cells was determined in a Neubauer-hemocytometer using trypan blue exclusion. […]
The clonogenic assay was carried out in a 96 well plate format using ultra low attachment plates. […] Cultures were incubated at 37° C. and 7.5% CO2 in a humidified atmosphere 13 days in total and monitored closely for colony growth using an inverted microscope. […]

Molecules are shown by their SMILES.

With `CC(C)(C)c1[nH]cnc1/C=c1\[nH]c(=O)/c(=C/c2ccccc2)[nH]c1=O` [plinabulin, (3Z,6Z)-3-Benzylidene-6-{[5-(2-methyl-2-propanyl)-1H-imidazol-4-yl]methylene}-2,5-piperazinedione], the “geom. mean absolute IC70” value is 38 nM.

These data come from US20240408082A1, “METHODS FOR TREATING CANCERS AND TUMORS” (BEYONDSPRING PHARMACEUTICALS, INC., priority 2021, published 2024).
